Results as given in patent US20230042936A1, “PYRIDO[2,3-d]PYRIMIDIN-7(8H)-ONES AS CDK INHIBITORS” (PROSENESTAR LLC, priority 2020, published 2023).
Like-named read-outs stand apart in the source and are kept apart here.

Columns and labels:
CDK5/p35NCK = CDK5/p35NCK (Homo sapiens, UniProt Q00535); test: Kinase profiling; assay type: biochemical
CDK19/CycC = CDK19/CycC (Homo sapiens, UniProt Q9BWU1); test: Kinase profiling; assay type: biochemical; conditions: 10 semi-logarithmic dilutions from 50 μM, singlicate
AKT1 aa1-480 = target: T1, AKT1 aa1-480 (Homo sapiens, UniProt P31749); test: Kinase profiling; assay type: biochemical; conditions: 10 semi-logarithmic dilutions from 50 μM, singlicate
T1 construct: AKT1 aa1-480

CDK4/CycD3 = CDK4/CycD3 (Homo sapiens, UniProt P11802); test: Kinase profiling; assay type: biochemical
CDK6/CycD3 = CDK6/CycD3 (Homo sapiens, UniProt Q00534); test: Kinase profiling; assay type: biochemical; conditions: 10 semi-logarithmic dilutions from 50 μM, singlicate
CDK6/CycD3, sequence (Q00534 whole entry): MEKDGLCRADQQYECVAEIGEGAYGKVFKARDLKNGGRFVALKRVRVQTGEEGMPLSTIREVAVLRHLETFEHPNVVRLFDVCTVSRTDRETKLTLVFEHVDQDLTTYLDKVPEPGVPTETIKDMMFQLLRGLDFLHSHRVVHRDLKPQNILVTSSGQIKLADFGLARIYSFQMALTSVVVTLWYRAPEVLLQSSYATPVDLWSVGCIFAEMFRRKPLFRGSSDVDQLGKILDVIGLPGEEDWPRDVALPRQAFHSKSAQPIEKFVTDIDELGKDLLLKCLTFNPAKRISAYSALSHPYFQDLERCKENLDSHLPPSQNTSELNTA
CDK6/CycD3, sequence (P30281 whole entry partner): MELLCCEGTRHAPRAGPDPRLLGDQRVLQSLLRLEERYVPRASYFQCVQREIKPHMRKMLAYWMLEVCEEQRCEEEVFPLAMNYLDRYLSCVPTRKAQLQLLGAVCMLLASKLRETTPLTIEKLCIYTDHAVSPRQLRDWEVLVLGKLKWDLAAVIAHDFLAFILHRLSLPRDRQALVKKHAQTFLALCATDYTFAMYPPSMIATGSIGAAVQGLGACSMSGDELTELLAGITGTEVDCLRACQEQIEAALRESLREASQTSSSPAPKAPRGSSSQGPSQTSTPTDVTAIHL

CDK3/CycE1 = CDK3/CycE1 (Homo sapiens, UniProt Q00526); test: Kinase profiling; assay type: biochemical; conditions: 10 semi-logarithmic dilutions from 50 μM, singlicate
PCTAIRE1/CycY = PCTAIRE1/CycY (Homo sapiens, UniProt Q00536); test: Kinase profiling; assay type: biochemical; conditions: 10 semi-logarithmic dilutions from 50 μM, singlicate
PCTAIRE1/CycY, sequence (Q00536 whole entry, species assumed): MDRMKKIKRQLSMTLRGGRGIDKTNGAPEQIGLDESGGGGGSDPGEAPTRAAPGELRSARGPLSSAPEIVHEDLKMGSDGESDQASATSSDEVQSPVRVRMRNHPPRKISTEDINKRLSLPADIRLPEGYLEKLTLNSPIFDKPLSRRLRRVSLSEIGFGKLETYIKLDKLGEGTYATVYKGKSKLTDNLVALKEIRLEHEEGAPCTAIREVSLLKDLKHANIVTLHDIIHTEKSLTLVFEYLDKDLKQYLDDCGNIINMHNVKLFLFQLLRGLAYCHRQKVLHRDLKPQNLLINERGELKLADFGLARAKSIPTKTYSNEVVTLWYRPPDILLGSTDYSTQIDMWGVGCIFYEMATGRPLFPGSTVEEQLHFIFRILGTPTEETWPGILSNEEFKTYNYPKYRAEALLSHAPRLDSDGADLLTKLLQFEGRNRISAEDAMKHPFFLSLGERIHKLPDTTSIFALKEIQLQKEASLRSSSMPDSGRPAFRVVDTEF
PCTAIRE1/CycY, sequence (Q8ND76 whole entry partner, species assumed): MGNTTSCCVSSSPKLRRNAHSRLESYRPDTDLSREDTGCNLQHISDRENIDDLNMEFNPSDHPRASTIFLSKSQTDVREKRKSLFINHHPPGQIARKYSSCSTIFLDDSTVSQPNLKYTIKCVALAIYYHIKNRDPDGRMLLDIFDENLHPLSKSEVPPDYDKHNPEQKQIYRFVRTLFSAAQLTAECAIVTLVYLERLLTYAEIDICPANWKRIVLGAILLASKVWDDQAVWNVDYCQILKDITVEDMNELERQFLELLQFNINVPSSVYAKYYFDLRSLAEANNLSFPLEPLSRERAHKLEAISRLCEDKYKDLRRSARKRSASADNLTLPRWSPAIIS

[1] = test system: MDA-MB-231 breast carcinoma cell line; test: Proliferation assay: determination of GI50; assay type: cell-based, human; conditions: Table 3, 48 h, n = 3 independent experiments, read-out: GI50 MDA-MB231
In short: (§1)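 Rb-proficient U87MG, MDA-MB-231 and H460 and Rb-deficient SW1783, grown in DMEM or RPMI-1640 with 10% FBS, treated for 48 h. Cells fixed in 4% PFA, Hoechst 33342-stained and counted by high-content imaging (20×, 30 fields/well); GI50 taken as absolute IC50 from dose-response fit.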

[2] = test system: H460 lung carcinoma cell line; test: Proliferation assay: determination of GI50; assay type: cell-based, human; conditions: Table 3, 48 h, n = 2 independent experiments
In short: as §1

CDK1/CycE1 = CDK1/CycE1 (Homo sapiens, UniProt P06493); test: Kinase profiling; assay type: biochemical
CDK9/CycT1 = CDK9/CycT1 (Homo sapiens, UniProt P50750); test: Kinase profiling; assay type: biochemical; conditions: 10 semi-logarithmic dilutions from 50 μM, singlicate
CDK9/CycT1, sequence (P50750 whole entry): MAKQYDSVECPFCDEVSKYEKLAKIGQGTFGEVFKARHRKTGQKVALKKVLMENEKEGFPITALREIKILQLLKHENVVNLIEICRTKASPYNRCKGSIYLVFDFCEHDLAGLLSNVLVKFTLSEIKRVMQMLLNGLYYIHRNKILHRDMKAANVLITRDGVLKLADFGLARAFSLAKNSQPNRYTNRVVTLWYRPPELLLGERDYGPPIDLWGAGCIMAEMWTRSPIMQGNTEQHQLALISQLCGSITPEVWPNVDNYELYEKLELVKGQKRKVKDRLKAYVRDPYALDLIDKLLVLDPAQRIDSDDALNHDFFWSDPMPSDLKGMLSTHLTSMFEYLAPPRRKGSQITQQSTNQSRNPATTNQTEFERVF
CDK9/CycT1, sequence (O60563 whole entry partner): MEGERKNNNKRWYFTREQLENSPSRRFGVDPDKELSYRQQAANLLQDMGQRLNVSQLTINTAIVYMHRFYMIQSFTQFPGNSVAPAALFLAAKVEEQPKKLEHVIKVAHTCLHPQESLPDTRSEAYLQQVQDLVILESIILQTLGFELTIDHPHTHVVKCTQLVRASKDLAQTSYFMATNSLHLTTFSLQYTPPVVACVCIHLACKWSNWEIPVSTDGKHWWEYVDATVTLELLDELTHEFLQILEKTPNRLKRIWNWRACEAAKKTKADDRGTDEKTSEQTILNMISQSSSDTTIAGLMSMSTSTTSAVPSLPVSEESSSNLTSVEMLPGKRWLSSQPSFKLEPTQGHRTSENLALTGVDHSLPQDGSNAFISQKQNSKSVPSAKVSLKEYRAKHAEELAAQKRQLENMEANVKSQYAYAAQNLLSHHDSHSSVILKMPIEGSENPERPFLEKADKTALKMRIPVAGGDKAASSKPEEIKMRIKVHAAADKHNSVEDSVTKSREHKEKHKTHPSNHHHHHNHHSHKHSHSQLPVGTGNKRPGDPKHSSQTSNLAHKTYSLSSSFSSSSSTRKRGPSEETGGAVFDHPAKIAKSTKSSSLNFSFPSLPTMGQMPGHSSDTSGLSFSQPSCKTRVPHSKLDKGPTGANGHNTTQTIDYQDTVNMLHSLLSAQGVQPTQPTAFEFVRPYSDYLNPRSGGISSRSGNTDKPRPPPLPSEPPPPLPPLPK

CDK1/CycA2 = CDK1/CycA2 (Homo sapiens, UniProt P06493); test: Kinase profiling; assay type: biochemical
CDK6/CycD1 = CDK6/CycD1 (Homo sapiens, UniProt Q00534); test: Kinase profiling; assay type: biochemical; conditions: 10 semi-logarithmic dilutions from 50 μM, singlicate
CDK6/CycD1, sequence (Q00534 whole entry): as the sequence (Q00534 whole entry) above
CDK6/CycD1, sequence (P24385 whole entry partner): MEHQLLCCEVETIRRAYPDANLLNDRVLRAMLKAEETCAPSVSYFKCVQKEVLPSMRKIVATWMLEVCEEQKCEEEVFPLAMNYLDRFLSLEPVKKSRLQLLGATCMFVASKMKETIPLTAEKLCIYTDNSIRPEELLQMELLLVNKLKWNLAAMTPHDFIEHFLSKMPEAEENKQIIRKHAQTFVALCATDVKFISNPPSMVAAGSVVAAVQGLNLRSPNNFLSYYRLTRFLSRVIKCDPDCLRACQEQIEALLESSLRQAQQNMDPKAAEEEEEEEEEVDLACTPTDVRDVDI

CDK5/p25NCK = CDK5/p25NCK (Homo sapiens, UniProt Q00535); test: Kinase profiling; assay type: biochemical
CDK4/CycD1 = CDK4/CycD1 (Homo sapiens, UniProt P11802); test: Kinase profiling; assay type: biochemical; conditions: 10 semi-logarithmic dilutions from 50 μM, singlicate
CDK12wt/CycK = CDK12wt/CycK (Homo sapiens, UniProt Q9NYV4); test: Kinase profiling; assay type: biochemical; conditions: 10 semi-logarithmic dilutions from 50 μM, singlicate
CDK12wt/CycK, sequence (Q9NYV4 whole entry): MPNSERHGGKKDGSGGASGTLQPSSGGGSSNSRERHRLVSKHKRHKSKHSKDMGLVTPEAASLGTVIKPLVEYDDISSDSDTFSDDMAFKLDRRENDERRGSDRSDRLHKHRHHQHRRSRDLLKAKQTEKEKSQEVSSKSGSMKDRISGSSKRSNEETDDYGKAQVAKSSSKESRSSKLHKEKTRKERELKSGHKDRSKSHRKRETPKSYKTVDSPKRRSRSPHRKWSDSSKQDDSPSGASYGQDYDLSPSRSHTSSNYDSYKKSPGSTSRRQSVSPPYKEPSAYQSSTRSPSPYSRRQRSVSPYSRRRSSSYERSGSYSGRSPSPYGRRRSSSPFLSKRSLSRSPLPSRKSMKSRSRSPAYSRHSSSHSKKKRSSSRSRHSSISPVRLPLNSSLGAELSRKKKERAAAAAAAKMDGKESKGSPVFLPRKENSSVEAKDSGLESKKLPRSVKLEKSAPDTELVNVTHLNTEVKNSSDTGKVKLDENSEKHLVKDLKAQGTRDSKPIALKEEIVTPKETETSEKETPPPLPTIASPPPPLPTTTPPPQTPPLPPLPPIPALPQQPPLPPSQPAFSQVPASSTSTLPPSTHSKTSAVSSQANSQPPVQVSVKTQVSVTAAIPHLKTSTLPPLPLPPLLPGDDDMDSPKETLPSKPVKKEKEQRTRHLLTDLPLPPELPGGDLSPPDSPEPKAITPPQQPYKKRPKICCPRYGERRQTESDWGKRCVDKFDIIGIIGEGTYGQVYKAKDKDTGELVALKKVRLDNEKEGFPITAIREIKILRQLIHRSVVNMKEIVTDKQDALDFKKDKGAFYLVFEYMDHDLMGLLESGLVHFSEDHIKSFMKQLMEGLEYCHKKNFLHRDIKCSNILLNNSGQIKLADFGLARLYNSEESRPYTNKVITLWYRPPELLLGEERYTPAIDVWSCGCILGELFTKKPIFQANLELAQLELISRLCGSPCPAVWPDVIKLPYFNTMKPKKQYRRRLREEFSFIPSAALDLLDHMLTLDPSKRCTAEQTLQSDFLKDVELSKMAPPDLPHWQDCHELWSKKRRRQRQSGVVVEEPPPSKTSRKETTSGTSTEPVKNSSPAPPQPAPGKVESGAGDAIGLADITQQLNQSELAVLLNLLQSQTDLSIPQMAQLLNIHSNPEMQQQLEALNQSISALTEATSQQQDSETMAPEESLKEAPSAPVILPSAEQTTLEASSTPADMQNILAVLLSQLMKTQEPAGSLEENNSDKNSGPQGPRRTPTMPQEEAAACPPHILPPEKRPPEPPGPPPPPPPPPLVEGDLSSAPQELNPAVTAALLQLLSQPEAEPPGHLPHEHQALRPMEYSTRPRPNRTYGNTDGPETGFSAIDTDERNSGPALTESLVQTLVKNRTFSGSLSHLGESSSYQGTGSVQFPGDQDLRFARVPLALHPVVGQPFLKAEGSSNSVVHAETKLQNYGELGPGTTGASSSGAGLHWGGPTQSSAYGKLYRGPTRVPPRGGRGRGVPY
CDK12wt/CycK, sequence (O75909 whole entry partner): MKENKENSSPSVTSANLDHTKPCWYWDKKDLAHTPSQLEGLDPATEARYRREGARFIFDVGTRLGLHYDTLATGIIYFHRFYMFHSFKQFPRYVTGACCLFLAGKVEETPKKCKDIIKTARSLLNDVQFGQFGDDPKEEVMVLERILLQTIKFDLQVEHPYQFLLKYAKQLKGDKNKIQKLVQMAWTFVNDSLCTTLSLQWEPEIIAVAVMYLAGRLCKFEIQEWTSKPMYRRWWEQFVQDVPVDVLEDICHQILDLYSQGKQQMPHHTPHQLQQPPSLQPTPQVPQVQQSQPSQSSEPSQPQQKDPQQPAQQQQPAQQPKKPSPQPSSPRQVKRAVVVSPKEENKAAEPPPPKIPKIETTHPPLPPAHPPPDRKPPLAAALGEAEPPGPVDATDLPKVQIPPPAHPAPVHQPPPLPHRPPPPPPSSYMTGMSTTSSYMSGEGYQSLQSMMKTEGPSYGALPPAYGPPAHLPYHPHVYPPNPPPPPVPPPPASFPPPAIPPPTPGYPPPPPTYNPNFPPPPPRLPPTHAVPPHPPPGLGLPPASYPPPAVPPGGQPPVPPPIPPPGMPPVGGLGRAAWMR

[3] = 10 semi-logarithmic dilutions from 50 μM, singlicate

Row | SMILES | IC50 (CDK5/p35NCK; [3]) [nM] | IC50 (CDK19/CycC) [nM] | IC50 (AKT1 aa1-480) [nM] | IC50 (CDK4/CycD3; [3]) [nM] | IC50 (CDK6/CycD3) [nM] | IC50 (CDK3/CycE1) [nM] | IC50 (PCTAIRE1/CycY) [nM] | GI50 ([1]; Homo sapiens, MDA-MB-231) [nM] | GI50 ([2]; Homo sapiens, NCI-H460) [nM] | IC50 (CDK1/CycE1; [3]) [nM] | IC50 (CDK9/CycT1) [nM] | IC50 (CDK1/CycA2; [3]) [nM] | IC50 (CDK6/CycD1) [nM] | IC50 (CDK5/p25NCK; [3]) [nM] | IC50 (CDK4/CycD1) [nM] | IC50 (CDK12wt/CycK) [nM] | also measured
1 | CC(=O)c1c(C)c2cnc(Nc3ccc(N4CCNCC4)cc3)nc2n([C@@H]2CC3CCC2C3)c1=O (stereo partly drawn) [PS010, 6-acetyl-8-((2R)-bicyclo[2.2.1]heptan-2-yl)-5-methyl-2-((4-(piperazin-1-yl)phenyl)amino)pyrido[2,3-d]pyrimidin-7(8H)-one] | 113 | 2850 | > 50000 | 5.48 | 21.2 | 700 | 4310 | 500 | 370 | 1440 | 36.6 | 4210 | 1.83 | 395 | 3.15 | 799 | 
2 | CC(=O)c1c(C)c2cnc(Nc3ccc(N4CCC(CCCO)CC4)cc3)nc2n([C@@H]2CC3CCC2C3)c1=O (stereo partly drawn) [PS008, 6-acetyl-8-((2R)-bicyclo[2.2.1]heptan-2-yl)-2-((4-(4-(3-hydroxypropyl)piperidin-1-yl)phenyl)amino)-5-methylpyrido[2,3-d]pyrimidin-7(8H)-one] | 3680 | 25700 | > 50000 | 261 | 672 | 25900 | 35900 | 4500 | 2570 | 3040 | 175 | 39100 | 19.5 | 9430 | 98.9 | 28100 | 
3 | O=c1ccc2cnc(Nc3ccc(N4CCC(CCCO)CC4)cc3)nc2n1C1CC2CCC1C2 (stereo not shown) [PD-0183812, reference compound] |  | 17400 | 48000 |  | 301 | 885 | 43500 |  |  |  | 484 |  | 19.9 |  | 31.6 | 3160 | IC50 (CDK5/p35NCK): 1840 nM; IC50 (CDK4/CycD3): 71.8 nM; GI50 [1]: 2150 nM; GI50 [2]: 1570 nM; IC50 (CDK1/CycE1): 8090 nM; IC50 (CDK1/CycA2): 28800 nM; IC50 (CDK5/p25NCK): 30100 nM
4 | O=c1ccc2cnc(Nc3ccc(N4CCC(OCC5(CO)COC5)CC4)cc3)nc2n1[C@@H]1CC2CCC1C2 (stereo partly drawn) [PS016, 8-((2R)-bicyclo[2.2.1]heptan-2-yl)-2-((4-(4-((3-(hydroxymethyl)oxetan-3-yl)methoxy)piperidin-1-yl)phenyl)amino)pyrido[2,3-d]pyrimidin-7(8H)-one] | 255 | 2790 | > 50000 | 20.8 | 33.3 | 93.4 | 2020 | 1230 | 440 | 527 | 92.5 | 1360 | 7.42 | 652 | 8.86 | 339 | 
5 | O=c1ccc2cnc(Nc3ccc(N4CCC(CCCO)CC4)c(F)c3)nc2n1[C@@H]1CC2CCC1C2 (stereo partly drawn) [PS003, 8-((2R)-bicyclo[2.2.1]heptan-2-yl)-2-((3-fluoro-4-(4-(3-hydroxypropyl)piperidin-1-yl)phenyl)amino)pyrido[2,3-d]pyrimidin-7(8H)-one] | 1920 | 19200 | > 50000 | 376 | 623 | 1130 | 43800 | 3900 | 1600 | 2970 | 918 | 7860 | 73.2 | 4660 | 150 | 3180 | 

The next lines start with results.

Row | IC50 (CDK5/p35NCK; [3]) [nM] | IC50 (CDK19/CycC) [nM] | IC50 (AKT1 aa1-480) [nM] | IC50 (CDK4/CycD3; [3]) [nM] | IC50 (CDK6/CycD3) [nM] | IC50 (CDK3/CycE1) [nM] | IC50 (PCTAIRE1/CycY) [nM] | GI50 ([1]; Homo sapiens, MDA-MB-231) [nM] | GI50 ([2]; Homo sapiens, NCI-H460) [nM] | IC50 (CDK1/CycE1; [3]) [nM] | IC50 (CDK9/CycT1) [nM] | IC50 (CDK1/CycA2; [3]) [nM] | IC50 (CDK6/CycD1) [nM] | IC50 (CDK5/p25NCK; [3]) [nM] | IC50 (CDK4/CycD1) [nM] | IC50 (CDK12wt/CycK) [nM] | SMILES | also measured
6 | 34.7 | 234 | > 50000 | 2.97 | 16.9 | 27.2 | 7.69 | 140 | 130 | 173 | 21.4 | 180 | < 1.5 | 72.5 | < 1.5 | 30.8 | CC(O)CCN1CCN(c2ccc(Nc3ncc4ccc(=O)n([C@@H]5CC6CCC5C6)c4n3)cc2)CC1 (stereo partly drawn) [PS005, 8-((2R)-bicyclo[2.2.1]heptan-2-yl)-2-((4-(4-(3-hydroxybutyl)piperazin-1-yl)phenyl)amino)pyrido[2,3-d]pyrimidin-7(8H)-one] | 
7 | 15.9 | 288 | 11600 | 2.25 | 9.66 | 11.9 | 4.04 | 150 | 160 | 40.8 | 13.6 | 208 | < 1.5 | 52.3 | < 1.5 | 25.8 | O=c1ccc2cnc(Nc3ccc(N4CCNCC4)cc3)nc2n1[C@@H]1CC2CCC1C2 (stereo partly drawn) [PS007, 8-((2R)-bicyclo[2.2.1]heptan-2-yl)-2-((4-(piperazin-1-yl)phenyl)amino)pyrido[2,3-d]pyrimidin-7(8H)-one] | 
